Test results: patent US11623002B2, “ALK polypeptides and methods of use thereof” (Elicio Therapeutics, Inc., priority 2016, dated 2023)
“Also recorded” adds a separate entry of the source.

Columns and labels:
CD4 T-cell = assay: Intracellular cytokine staining (ICS), CD4 T-cell response to individual ALK polypeptides; assay type: cell-based; conditions: spleen and lymph node cells of mice immunized with SEQ ID NOs: 1-59 mixed with Freund's adjuvant; re-stimulated with individual ALK polypeptides; FIGS. 2A and 2B
Source text: (§1) To identify the immunodominant ALK polypeptides, mice were immunized with ALK polypeptides having the sequences of SEQ ID NOs: 1-59 listed in Table 1A mixed with Freund's adjuvant. Spleens and lymph nodes were then removed from immunized mice and assayed by intracellular cytokine staining (ICS).

CD8 T-cell = assay: Intracellular cytokine staining (ICS), CD8 T-cell response to individual ALK polypeptides; assay type: cell-based; conditions: spleen and lymph node cells of mice immunized with SEQ ID NOs: 1-59 mixed with Freund's adjuvant; re-stimulated with individual ALK polypeptides; FIGS. 2C and 2D
Source text: as §1

| Sequence | CD4 T-cell responses (ICS) (CD4 T-cell) | CD8 T-cell response (ICS) (CD8 T-cell) |
| --- | --- | --- |
| PVYRIMTQCWQHQPE [SEQ ID NO: 53] | strongest CD4 T-cell responses | – |
| LDFLMEALIISKFNH [SEQ ID NO: 14] | strongest CD4 T-cell responses | strongest CD8 T-cell response |
| LTCPGPGRVAKIGDF [SEQ ID NO: 33] | – | strongest CD8 T-cell response; also recorded: CD8 T-cell (CD8) stimulating sequence |
| KNCPGPVYRIMTQCW [SEQ ID NO: 52] | strongest CD4 T-cell responses | – |
| GDLKSFLRETRPRPS [SEQ ID NO: 22] | strongest CD4 T-cell responses | – |
| QNIVRCIGVSLQSLP [SEQ ID NO: 17] | strongest CD4 T-cell responses | – |
| PSPLQVAVRTLPEVC [SEQ ID NO: 10] | strongest CD4 T-cell responses | strongest CD8 T-cell response |
